Assay results taken from US7473688B2, “Indolobenzazepine HCV NS5B inhibitors” (Bristol-Myers Squibb Company, priority 2005, dated 2009).
Read-outs that look alike come from different tables or passages of the source.

Assays:
[1] = target: T1, HCV NS5B (Hepatitis C virus genotype 1b, UniProt Q9WMX2); experiment: HCV NS5B RdRp enzyme assay (preincubation protocol); assay type: biochemical; settings: Table 1, read-out: IC50*
T1 construct: The protein was expressed with an 18 amino acid C-terminal truncation to enhance the solubility; made in house; host or cells: E. coli BL21 (DE3), pET21a
T1 sequence (Q9WMX2 2420-2992): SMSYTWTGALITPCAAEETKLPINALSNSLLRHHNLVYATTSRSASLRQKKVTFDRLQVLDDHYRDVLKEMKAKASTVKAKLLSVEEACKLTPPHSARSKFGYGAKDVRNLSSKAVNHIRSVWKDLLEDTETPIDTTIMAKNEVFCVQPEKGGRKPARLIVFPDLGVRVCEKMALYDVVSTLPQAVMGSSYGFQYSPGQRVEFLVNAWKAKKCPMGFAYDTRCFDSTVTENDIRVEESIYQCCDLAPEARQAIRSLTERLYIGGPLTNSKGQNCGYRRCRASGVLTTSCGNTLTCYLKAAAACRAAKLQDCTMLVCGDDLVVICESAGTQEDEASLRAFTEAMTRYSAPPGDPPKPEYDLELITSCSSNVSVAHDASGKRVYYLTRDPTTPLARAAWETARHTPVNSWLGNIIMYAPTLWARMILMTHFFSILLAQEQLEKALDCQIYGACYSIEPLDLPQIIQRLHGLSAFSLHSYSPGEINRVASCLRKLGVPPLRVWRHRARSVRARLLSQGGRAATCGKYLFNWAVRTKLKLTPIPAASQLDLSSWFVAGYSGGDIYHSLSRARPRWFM
Outline: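 C-terminally truncated (Δ18) genotype 1b NS5B from E. coli, 14 nM, added to compound, then polyA template (0.2 nM), 3H-UTP (0.29 μM) and oligo-dT12 primer precaptured on streptavidin SPA beads. 4 h at 30 °C, pH 7.5, 2% DMSO; SPA readout; IC50 from seven concentrations by logistic fit.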

[2] = system: HCV replicon; experiment: HCV replicon FRET assay; assay type: cell-based; settings: Hepatitis C virus
Text: FRET Assay Preparation. To perform the HCV FRET screening assay, 96-well cell culture plates were used. The FRET peptide (Anaspec, Inc.) (Taliani et al., Anal. Biochem. 1996, 240, 60-67) contains a fluorescence donor, EDANS, near one end of the peptide and an acceptor, DABCYL, near the other end. The fluorescence of the peptide is quenched by […] resonance energy transfer (RET) between the donor and the acceptor, but as the NS3 protease cleaves the peptide the products are released from RET quenching and the fluorescence of the donor becomes apparent. The assay reagent was made as follows: 5× cell Luciferase cell culture lysis reagent from Promega (#E153A) diluted to 1× with dH2O, NaCl added to 150 mM final, the FRET peptide diluted to 20 uM final from a 2 mM stock.
To prepare plates, HCV replicon cells, with or without a Renilla luciferase reporter gene, were trypsinized and placed into each well of a 96-well plate with titrated test compounds added in columns 3 through 12; columns 1 and 2 contained a control compound (HCV protease inhibitor), and the bottom row contained cells without compound. The plates were then placed in a CO2 incubator at 37° C.
Assays. Subsequent to addition of the test compounds described above (FRET Assay Preparation), at various times the plate was removed and Alamar blue solution (Trek Diagnostics, #00-100) was added per well as a measure of cellular toxicity. After reading in a Cytoflour 4000 instrument (PE Biosystems), plates were rinsed with PBS and then used for FRET assay by the addition of 30 ul of the FRET peptide assay reagent described above (FRET Assay Preparation) per well. The plate was then placed into the Cytoflour 4000 instrument which had been set to 340 excite/490 emission, automatic mode for 20 cycles and the plate read in a kinetic mode. Typically, the signal to noise using an endpoint analysis after the reads was at least three-fold. Alternatively, after Alamar blue reading, plates were rinsed with PBS, 50 ul of DMEM (high glucose) without phenol red was added and plates were then used for luciferase assay using the Promega Dual-Glo Luciferase Assay System.
Compound analysis was determined by quantification of the relative HCV replicon inhibition and the relative cytotoxicity values. To calculate cytoxicity values, the average Alamar Blue fluorescence signals from the control wells were set as 100% non-toxic. The individual signals in each of the compound test wells were then divided by the average control signal and multiplied by 100% to determine […]. To calculate the HCV replicon inhibition values, an average background value was obtained from the two wells containing the highest amount of HCV protease inhibitor at the end of the assay period. These numbers were similar to those obtained from naïve Huh-7 cells.
The background numbers were then subtracted from the average signal obtained from the control wells and this number was used as 100% activity. The individual signals in each of the compound test wells were then divided by the averaged control values after background subtraction and multiplied by 100% to determine percent activity. EC50 values for a protease inhibitor titration were calculated as the concentration which caused a 50% reduction in FRET or luciferase activity. The two numbers generated for the compound plate, percent cytoxicity and percent activity were used to determine compounds of interest for further analysis.

[3] = Table 1, FRET assay, read-out: EC50*

SMILES | IC50 [1] | EC50 [2, 3] | EC50 [2]
CN(C)S(=O)(=O)NC(=O)c1ccc2c(C3CCCCC3)c3n(c2c1)CC(C(=O)N1CCN2C(=O)c4ccccc4C2C1)=Cc1ccccc1-3 (centres unmarked) | 0.01 to 1 µM | 0.07 to 1 µM | –
O=C(O)c1ccc2c(C3CCCCC3)c3n(c2c1)CC(C(=O)N1CCN(c2ncccn2)CC1)=Cc1ccccc1-3 | 0.01 to 1 µM | 0.07 to 1 µM | –
CN(C)S(=O)(=O)NC(=O)c1ccc2c(C3CCCCC3)c3n(c2c1)CC(C(=O)N1CCN(c2ncccn2)CC1)=Cc1ccccc1-3 | 0.01 to 1 µM | 0.07 to 1 µM | –
CN(C)S(=O)(=O)NC(=O)c1ccc2c(C3CCCCC3)c3n(c2c1)CC(C(=O)N1CCN(C(=O)N2CCOCC2)CC1)=Cc1ccccc1-3 | 0.01 to 1 µM | 0.07 to 1 µM | –
CN(C)S(=O)(=O)NC(=O)c1ccc2c(C3CCCCC3)c3n(c2c1)CC(C(=O)N1CCN(C(=O)OC(C)(C)C)CC1)=Cc1ccccc1-3 | 0.01 to 1 µM | 0.07 to 1 µM | –
CN(C)S(=O)(=O)NC(=O)c1ccc2c(C3CCCCC3)c3n(c2c1)CC(C(=O)N1CCC(CNC(=O)c2ccccc2)C1)=Cc1ccccc1-3 (centres unmarked) | 0.01 to 1 µM | 0.07 to 1 µM | –
CN(C)S(=O)(=O)NC(=O)c1ccc2c(C3CCCCC3)c3n(c2c1)CC(C(=O)NC1CCOCC1)=Cc1ccccc1-3 | 0.01 to 1 µM | 0.07 to 1 µM | –
COC(=O)c1ccc2c(C3CCCCC3)c3n(c2c1)CC(NC(=O)N1CCOCC1)Cc1ccccc1-3 (centres unmarked) | > 1 µM | > 0.12 µM | –
O=C(O)c1ccc2c(C3CCCCC3)c3n(c2c1)CC(NC(=O)N1CCOCC1)Cc1ccccc1-3 (centres unmarked) | 0.01 to 1 µM | 0.07 to 1 µM | –
COC(=O)c1ccc2c(C3CCCCC3)c3n(c2c1)CC(C(=O)N1CCC(C(N)=O)C1)=Cc1ccccc1-3 (centres unmarked) | > 1 µM | 1 to 10 µM | –
NC(=O)C1CCN(C(=O)C2=Cc3ccccc3-c3c(C4CCCCC4)c4ccc(C(=O)O)cc4n3C2)C1 (centres unmarked) | 0.01 to 1 µM | 1 to 10 µM | –
CN(C)S(=O)(=O)NC(=O)c1ccc2c(C3CCCCC3)c3n(c2c1)CC(C(=O)N1CCC(N2CCOCC2)CC1)=Cc1cc(O)ccc1-3 | 0.01 to 1 µM | 0.07 to 1 µM | –
COC(=O)c1ccc2c(C3CCCCC3)c3n(c2c1)CC(NC(=O)N1C[C@@H](C)O[C@@H](C)C1)Cc1ccccc1-3 (some centres unmarked) | > 1 µM | > 0.12 µM | –
CC(=O)N(C)C1CCN(C(=O)C2=Cc3ccccc3-c3c(C4CCCCC4)c4ccc(C(=O)NS(=O)(=O)N(C)C)cc4n3C2)C1 (centres unmarked) | 0.01 to 1 µM | 0.07 to 1 µM | –
CN(C)C(=O)[C@@H]1CCCN1C(=O)C1=Cc2ccccc2-c2c(C3CCCCC3)c3ccc(C(=O)NS(=O)(=O)N(C)C)cc3n2C1 | 0.01 to 1 µM | 0.07 to 1 µM | –
CN(C)S(=O)(=O)NC(=O)c1ccc2c(C3CCCCC3)c3n(c2c1)CC(C(=O)N1CCC(Oc2ncccn2)CC1)=Cc1ccccc1-3 | 0.01 to 1 µM | 0.07 to 1 µM | –
CN(C)S(=O)(=O)NC(=O)c1ccc2c(C3CCCCC3)c3n(c2c1)CC(C(=O)N1CCOC(c2ccccc2)C1)=Cc1ccccc1-3 (centres unmarked) | 0.01 to 1 µM | 1 to 10 µM | –
CN(C(=O)C1=Cc2ccccc2-c2c(C3CCCCC3)c3ccc(C(=O)NS(=O)(=O)N(C)C)cc3n2C1)C1CCS(=O)(=O)C1 (centres unmarked) | 0.01 to 1 µM | 0.07 to 1 µM | –
CN(C)S(=O)(=O)NC(=O)c1ccc2c(C3CCCCC3)c3n(c2c1)CC(C(=O)N1CCS(=O)(=O)CC1)=Cc1ccccc1-3 | 0.01 to 1 µM | 0.07 to 1 µM | –
COC(=O)c1ccc2c(C3CCCCC3)c3n(c2c1)CC(C(=O)N(C)NC(C)=O)=Cc1ccccc1-3 | > 1 µM | 1 to 10 µM | –

SMILES | IC50 [1] | EC50 [2, 3] | EC50 [2]
CC(=O)NN(C)C(=O)C1=Cc2ccccc2-c2c(C3CCCCC3)c3ccc(C(=O)NS(=O)(=O)N(C)C)cc3n2C1 | 0.01 to 1 µM | 0.07 to 1 µM | –
O=C(O)c1ccc2c(C3CCCCC3)c3n(c2c1)C[C@@H](NC(=O)N1CCOCC1)Cc1ccccc1-3 | 0.01 to 1 µM | 0.07 to 1 µM | –
O=C(O)c1ccc2c(C3CCCCC3)c3n(c2c1)C[C@H](NC(=O)N1CCOCC1)Cc1ccccc1-3 | 0.01 to 1 µM | 0.07 to 1 µM | –
COc1ccc2c(c1)C=C(C(=O)N(C)CC(=O)N(C)C)Cn1c-2c(C2CCCCC2)c2ccc(C(=O)O)cc21 | 0.01 to 1 µM | 0.07 to 1 µM | –
C[C@@H]1CN(C(=O)NC2Cc3ccccc3-c3c(C4CCCCC4)c4ccc(C(=O)NS(=O)(=O)N(C)C)cc4n3C2)C[C@H](C)O1 (some centres unmarked) | 0.01 to 1 µM | 0.07 to 1 µM | –
O=C(NC1Cc2ccccc2-c2c(C3CCCCC3)c3ccc(C(=O)O)cc3n2C1)OCc1ccccc1 (centres unmarked) | 0.01 to 1 µM | 0.07 to 1 µM | –
COC(=O)c1ccc2c(C3CCCCC3)c3n(c2c1)CC(C(=O)N1CCC(N2CCOCC2)CC1)=Cc1ccccc1-3 | > 1 µM | 1 to 10 µM | –
O=C(O)c1ccc2c(C3CCCCC3)c3n(c2c1)CC(C(=O)N1CCC(N2CCOCC2)CC1)=Cc1ccccc1-3 | 0.01 to 1 µM | 0.07 to 1 µM | –
CN(C)S(=O)(=O)NC(=O)c1ccc2c(C3CCCCC3)c3n(c2c1)CC(C(=O)N1CCC(N2CCOCC2)CC1)=Cc1ccccc1-3 | 0.01 to 1 µM | 0.07 to 1 µM | –
O=C(O)c1ccc2c(C3CCCCC3)c3n(c2c1)CC(C(=O)N1CCC(N2C(=O)Cc4ccccc42)CC1)=Cc1ccccc1-3 | 0.01 to 1 µM | – | 0.07 to 1 µM
O=C(O)c1ccc2c(C3CCCCC3)c3n(c2c1)CC(C(=O)N1CCC(C(=O)N2CCCC2)CC1)=Cc1ccccc1-3 | 0.01 to 1 µM | 0.07 to 1 µM | –
O=C(O)c1ccc2c(C3CCCCC3)c3n(c2c1)CC(C(=O)N1CCC(N2CCCC2=O)CC1)=Cc1ccccc1-3 | 0.01 to 1 µM | 0.07 to 1 µM | –
CN(C)S(=O)(=O)NC(=O)c1ccc2c(C3CCCCC3)c3n(c2c1)CC(C(=O)N1CCC(N2CCCC2=O)CC1)=Cc1ccccc1-3 | 0.01 to 1 µM | 0.07 to 1 µM | –
CC(=O)NC1CCN(C(=O)C2=Cc3ccccc3-c3c(C4CCCCC4)c4ccc(C(=O)O)cc4n3C2)CC1 | 0.01 to 1 µM | 0.07 to 1 µM | –
O=C(O)c1ccc2c(C3CCCCC3)c3n(c2c1)CC(C(=O)N1CCC(n2ccnn2)CC1)=Cc1ccccc1-3 | 0.01 to 1 µM | 0.07 to 1 µM | –
COC(=O)c1ccc2c(C3CCCCC3)c3n(c2c1)CC(C(=O)N1CCC(N2CCCCC2=O)CC1)Cc1ccccc1-3 (centres unmarked) | > 1 µM | 0.07 to 1 µM | –
O=C(O)c1ccc2c(C3CCCCC3)c3n(c2c1)CC(C(=O)N1CCC(N2CCCCC2=O)CC1)Cc1ccccc1-3 (centres unmarked) | 0.01 to 1 µM | 0.07 to 1 µM | –
CS(=O)(=O)NC(=O)c1ccc2c(C3CCCCC3)c3n(c2c1)CC(C(=O)N1CCC(N2CCCC2=O)CC1)=Cc1ccccc1-3 | 0.01 to 1 µM | 1 to 10 µM | –
CN(C)S(=O)(=O)NC(=O)c1ccc2c(C3CCCCC3)c3n(c2c1)CC(C(=O)N1CCC(N2CCCCC2=O)CC1)Cc1ccccc1-3 (centres unmarked) | 0.01 to 1 µM | 0.07 to 1 µM | –
CN(C)S(=O)(=O)NC(=O)c1ccc2c(C3CCCCC3)c3n(c2c1)CC(C(=O)N1CCC(C(=O)N2CCCC2)CC1)=Cc1ccccc1-3 | 0.01 to 1 µM | 0.07 to 1 µM | –
